Measured values from patent US11046672B2, “Indolinones compounds and their use in the treatment of fibrotic diseases” (RESPIVERT LIMITED, priority 2015, dated 2021).
Like-named read-outs stand apart in the source and are kept apart here.

Experiments:
[1] = molecular target: T1, PDGFRβ (Homo sapiens (Human), UniProt P09619); test: PDGF-BB induced phosphorylation of PDGFRβ in fibroblasts (MRC5 cells, HTRF); assay type: cell-based; conditions: MRC5 cells; n = 1 unless otherwise indicated; read-out: PDGFBB-induced PDGFRβ phosphorylation in MRC5 cells (IC50)
T1 sequence (P09619 33-1106): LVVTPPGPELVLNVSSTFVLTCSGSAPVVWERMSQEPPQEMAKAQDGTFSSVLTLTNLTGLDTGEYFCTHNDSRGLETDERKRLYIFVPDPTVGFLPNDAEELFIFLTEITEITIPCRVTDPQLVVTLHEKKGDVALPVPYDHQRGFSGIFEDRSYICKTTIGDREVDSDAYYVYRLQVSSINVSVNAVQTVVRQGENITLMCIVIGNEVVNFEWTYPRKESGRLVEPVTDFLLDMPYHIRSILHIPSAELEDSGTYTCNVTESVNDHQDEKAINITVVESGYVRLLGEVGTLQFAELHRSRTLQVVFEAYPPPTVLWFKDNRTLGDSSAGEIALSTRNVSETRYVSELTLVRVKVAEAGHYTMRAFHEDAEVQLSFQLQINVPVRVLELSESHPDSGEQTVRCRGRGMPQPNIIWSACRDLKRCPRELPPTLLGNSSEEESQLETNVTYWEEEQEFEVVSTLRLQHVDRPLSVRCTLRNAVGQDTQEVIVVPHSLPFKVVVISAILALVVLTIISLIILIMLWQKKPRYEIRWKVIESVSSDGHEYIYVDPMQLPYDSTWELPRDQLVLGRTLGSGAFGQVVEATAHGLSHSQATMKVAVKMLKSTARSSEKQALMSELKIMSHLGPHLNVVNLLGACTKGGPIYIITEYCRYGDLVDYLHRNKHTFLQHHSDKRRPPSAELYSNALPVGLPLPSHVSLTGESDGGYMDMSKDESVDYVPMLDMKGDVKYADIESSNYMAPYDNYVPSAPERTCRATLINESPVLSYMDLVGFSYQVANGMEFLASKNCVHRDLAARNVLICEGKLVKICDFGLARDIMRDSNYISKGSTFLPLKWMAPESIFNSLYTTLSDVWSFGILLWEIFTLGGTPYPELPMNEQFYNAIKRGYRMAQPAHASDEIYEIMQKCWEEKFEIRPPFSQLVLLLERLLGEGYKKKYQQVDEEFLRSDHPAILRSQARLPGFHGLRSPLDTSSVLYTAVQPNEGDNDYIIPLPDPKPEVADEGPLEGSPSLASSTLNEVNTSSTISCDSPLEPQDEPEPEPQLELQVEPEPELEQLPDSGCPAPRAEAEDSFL

[2] = Pharmacokinetic measurements in mice (intravenous and intra-nasal dosing); assay type: in vivo; conditions: mouse; for concentration at 6 h / concentration at 0.1 h / concentration at 1.5 h / concentration at 24 h: lung, read-out: lung concentration (nM) at time (h); for Kp at 6 h / Kp at 0.1 h / Kp at 1.5 h: lung/plasma
[3] = molecular target: T1, PDGFRβ; conditions: read-out: Ki PDGFRβ; mean, n = 2 unless otherwise indicated
[4] = tested on: MRC5 cells; test: Cell viability assay in MRC5 cells (MTT)
[5] = PAMPA permeability assay; assay type: in vitro ADME; conditions: PAMPA, donor and acceptor compartments
[6] = molecular target: T1, PDGFRβ; test: Duration of action (washout) against PDGF-BB induced phosphorylation of PDGFRβ in human fetal lung fibroblast cells; assay type: cell-based; conditions: MRC-5 cells, after wash-out, rhuPDGF-BB; experiments in Groups 1-4
[7] = Pharmacokinetic measurements in rats (intravenous and intra-tracheal dosing); assay type: in vivo; conditions: rat; for concentration at 6 h / concentration at 0.1 h / concentration at 1.5 h / concentration at 24 h: lung, read-out: lung concentration (nM) at time (h); for Kp at 6 h / Kp at 0.1 h / Kp at 1.5 h / Kp at 24 h: lung/plasma

COC(=O)c1cc2c(cc1C)/C(=C(/Nc1ccc(C(=O)NOCCN(C)C)c(C)c1)c1ccccc1)C(=O)N2 [Example 5, (Z)-Methyl 3-(((4-((2-(dimethylamino)ethoxy)carbamoyl)-3-methylphenyl)amino)(phenyl)methylene)-5-methyl-2-oxoindoline-6-carboxylate]
IC50 [1]: 7.74 nM
concentration at 6 h ([2]; male, C57BL/6J, iv, 0.2 mg/kg, i.v. dosing, 6 h, mean): 306 nM
concentration at 0.1 h ([2]; male, C57BL/6J, iv, i.v. dosing, 0.1 h, mean): 868 nM
concentration at 1.5 h ([2]; male, C57BL/6J, iv, i.v. dosing, 1.5 h, mean): 416 nM
concentration at 24 h ([2]; male, C57BL/6J, iv, i.v. dosing, 24 h, mean): 20 nM
concentration at 0.1 h ([2]; male, C57BL/6J, other: intra-nasal, i.n. dosing, 0.1 h, mean): 3510 nM
concentration at 1.5 h ([2]; male, C57BL/6J, other: intra-nasal, i.n. dosing, 1.5 h, mean): 1730 nM
concentration at 6 h ([2]; male, C57BL/6J, other: intra-nasal, i.n. dosing, 6 h, mean): 1320 nM
concentration at 24 h ([2]; male, C57BL/6J, other: intra-nasal, i.n. dosing, 24 h, mean): 363 nM
Kp at 6 h ([2]; male, C57BL/6J, iv, 0.2 mg/kg, i.v. dosing, 6 h, read-out: lung/plasma ratio at time(h)): 152
Kp at 0.1 h ([2]; male, C57BL/6J, iv, i.v. dosing, 0.1 h, read-out: lung/plasma ratio at time(h)): 13
Kp at 1.5 h ([2]; male, C57BL/6J, iv, i.v. dosing, 1.5 h, read-out: lung/plasma ratio at time(h)): 39
Kp at 0.1 h ([2]; male, C57BL/6J, other: intra-nasal, i.n. dosing, 0.1 h, read-out: lung/plasma conc ratio at time(h)): 209
Kp at 1.5 h ([2]; male, C57BL/6J, other: intra-nasal, i.n. dosing, 1.5 h, read-out: lung/plasma conc ratio at time(h)): 688
Kp at 6 h ([2]; male, C57BL/6J, other: intra-nasal, i.n. dosing, 6 h, read-out: lung/plasma conc ratio at time(h)): 1130
clearance ([2]; male, C57BL/6J, whole blood, iv): 111 mL/min/kg
MRT ([2]; male, C57BL/6J, whole blood, iv, i.v. dosing, mean): 3.2 h
Vd ([2]; male, C57BL/6J, whole blood, iv, i.v. dosing, mean, read-out: Vss): 21 L/kg
half-life ([2]; male, C57BL/6J, whole blood, iv, i.v. dosing, mean, read-out: t½ (converted)): 2.6 h
Lung conc i.n./i.v. Ratio at time (h) ([2]; 0.1 h): 4.0
Lung conc i.n./i.v. Ratio at time (h) ([2]; 1.5 h): 4.2
Lung conc i.n./i.v. Ratio at time (h) ([2]; 6 h): 4.3
Lung conc i.n./i.v. Ratio at time (h) ([2]; 24 h): 18.2
BAV (%) ([2]; i.n. dosing (i.n. dose 1 nintedanib, 0.2 examples), mean): 14%
BAL % administered dose at time (h) ([2]; i.n. dosing, 0.1 h): 1%
BAL % administered dose at time (h) ([2]; i.n. dosing, 1.5 h): 0.1%
BAL % administered dose at time (h) ([2]; i.n. dosing, 6 h): 0.3%
BAL % administered dose at time (h) ([2]; i.n. dosing, 24 h): 0.1%
BAL % administered dose at time (h) ([2]; i.v. dosing, 0.1 h): 0.07%
BAL % administered dose at time (h) ([2]; i.v. dosing, 1.5 h): 0.02%
BAL % administered dose at time (h) ([2]; i.v. dosing, 6 h): 0.01%
BAL % administered dose at time (h) ([2]; i.v. dosing, 24 h): 0.02%
BAV (%) ([2]; oral dosing (oral dose 60 mg/kg nintedanib, 10 mg/kg examples), mean): 13%
Ki [3]: 7.13 nM
Cell viability at 100 nM (%) ([4]; 100 nM): 100.6%
Cell viability at 300 nM (%) ([4]; 300 nM): 92.5%
Cell viability at 1000 nM (%) ([4]; 1000 nM): 71.5%
% Recovery [5]: 60.9%
recovery at 5 hr, 10 μM ([5]; pH 7, PAMPA): 50.4%
% phos: percentage phosphorylation after wash-out relative to maximal phosphorylation (100%) [6]: 37.3%
concentration at 6 h ([7]; male, CD, iv, 0.1 mg/kg, i.v. dosing, 6 h): 92 nM
concentration at 0.1 h ([7]; male, CD, iv, i.v. dosing, 0.1 h): 475 nM
concentration at 1.5 h ([7]; male, CD, iv, i.v. dosing, 1.5 h): 251 nM
concentration at 24 h ([7]; male, CD, iv, i.v. dosing, 24 h): 52 nM
concentration at 0.1 h ([7]; male, CD, other: intra-tracheal, i.t. dosing, 0.1 h): 3590 nM
concentration at 1.5 h ([7]; male, CD, other: intra-tracheal, i.t. dosing, 1.5 h): 1710 nM
concentration at 6 h ([7]; male, CD, other: intra-tracheal, i.t. dosing, 6 h): 629 nM
concentration at 24 h ([7]; male, CD, other: intra-tracheal, i.t. dosing, 24 h): 747 nM
Kp at 6 h ([7]; male, CD, iv, 0.1 mg/kg, i.v. dosing, 6 h, read-out: lung/plasma ratio at time(h)): 26
Kp at 0.1 h ([7]; male, CD, iv, i.v. dosing, 0.1 h, read-out: lung/plasma ratio at time(h)): 24
Kp at 1.5 h ([7]; male, CD, iv, i.v. dosing, 1.5 h, read-out: lung/plasma ratio at time(h)): 36
Kp at 24 h ([7]; male, CD, iv, i.v. dosing, 24 h, read-out: lung/plasma ratio at time(h)): 98
Kp at 0.1 h ([7]; male, CD, other: intra-tracheal, i.t. dosing, 0.1 h, read-out: lung/plasma conc ratio at time(h)): 74
Kp at 1.5 h ([7]; male, CD, other: intra-tracheal, i.t. dosing, 1.5 h, read-out: lung/plasma conc ratio at time(h)): 362
Kp at 6 h ([7]; male, CD, other: intra-tracheal, i.t. dosing, 6 h, read-out: lung/plasma conc ratio at time(h)): 461
Kp at 24 h ([7]; male, CD, other: intra-tracheal, i.t. dosing, 24 h, read-out: lung/plasma conc ratio at time(h)): 1520
MRT ([7]; male, CD, plasma, iv, i.v. dosing): 8 h
clearance ([7]; male, CD, plasma, iv, i.v. dosing (i.v. dose 0.1-0.5 per compound)): 48 mL/min/kg
Vd ([7]; male, CD, plasma, iv, i.v. dosing, read-out: Vss): 23 L/kg
half-life ([7]; male, CD, plasma, iv, i.v. dosing, read-out: t½ (converted)): 7.6 h
Lung conc i.t./i.v. Ratio at time (h) ([7]; 0.1 h): 7.6
Lung conc i.t./i.v. Ratio at time (h) ([7]; 1.5 h): 6.8
Lung conc i.t./i.v. Ratio at time (h) ([7]; 6 h): 6.8
Lung conc i.t./i.v. Ratio at time (h) ([7]; 24 h): 14.4
i.t. BAV (%) ([7]; i.t. dosing (i.t. dose 0.1-0.5 per compound)): 70%
BAL % administered dose at time (h) ([7]; i.t. dosing, 0.1 h): 3.1%
BAL % administered dose at time (h) ([7]; i.t. dosing, 1.5 h): 0.6%
BAL % administered dose at time (h) ([7]; i.t. dosing, 6 h): 0.3%
BAL % administered dose at time (h) ([7]; i.t. dosing, 24 h): 0.2%
BAL % administered dose at time (h) ([7]; i.v. dosing, 0.1 h): 0.04%
BAL % administered dose at time (h) ([7]; i.v. dosing, 1.5 h): 0.01%
BAL % administered dose at time (h) ([7]; i.v. dosing, 6 h): 0.01%
BAL % administered dose at time (h) ([7]; i.v. dosing, 24 h): 0.01%
Oral BAV (%) ([7]; oral dose 3 mg/kg): 4%
